Reference: patent EP0175291B1, “Novel alpha-D-mannosidase inhibitor” (MICROBIAL CHEMISTRY RESEARCH FOUNDATION, priority 1984, dated 1986)
Entries after “also recorded” stand apart in the source; their conditions may differ.

What was measured:
[1] = system: α-D-mannosidase of the leguminous plant origin; settings: qualitative, prior art; cited from earlier work
[2] = target: T1, α-D-mannosidase of the rat epididymis origin (Rattus norvegicus, UniProt Q6P762); test: α-D-mannosidase inhibitory activity, colorimetric, p-nitrophenyl-α-D-mannopyranoside substrate; assay type: biochemical; settings: qualitative statement
T1 sequence (Q6P762 50-1009): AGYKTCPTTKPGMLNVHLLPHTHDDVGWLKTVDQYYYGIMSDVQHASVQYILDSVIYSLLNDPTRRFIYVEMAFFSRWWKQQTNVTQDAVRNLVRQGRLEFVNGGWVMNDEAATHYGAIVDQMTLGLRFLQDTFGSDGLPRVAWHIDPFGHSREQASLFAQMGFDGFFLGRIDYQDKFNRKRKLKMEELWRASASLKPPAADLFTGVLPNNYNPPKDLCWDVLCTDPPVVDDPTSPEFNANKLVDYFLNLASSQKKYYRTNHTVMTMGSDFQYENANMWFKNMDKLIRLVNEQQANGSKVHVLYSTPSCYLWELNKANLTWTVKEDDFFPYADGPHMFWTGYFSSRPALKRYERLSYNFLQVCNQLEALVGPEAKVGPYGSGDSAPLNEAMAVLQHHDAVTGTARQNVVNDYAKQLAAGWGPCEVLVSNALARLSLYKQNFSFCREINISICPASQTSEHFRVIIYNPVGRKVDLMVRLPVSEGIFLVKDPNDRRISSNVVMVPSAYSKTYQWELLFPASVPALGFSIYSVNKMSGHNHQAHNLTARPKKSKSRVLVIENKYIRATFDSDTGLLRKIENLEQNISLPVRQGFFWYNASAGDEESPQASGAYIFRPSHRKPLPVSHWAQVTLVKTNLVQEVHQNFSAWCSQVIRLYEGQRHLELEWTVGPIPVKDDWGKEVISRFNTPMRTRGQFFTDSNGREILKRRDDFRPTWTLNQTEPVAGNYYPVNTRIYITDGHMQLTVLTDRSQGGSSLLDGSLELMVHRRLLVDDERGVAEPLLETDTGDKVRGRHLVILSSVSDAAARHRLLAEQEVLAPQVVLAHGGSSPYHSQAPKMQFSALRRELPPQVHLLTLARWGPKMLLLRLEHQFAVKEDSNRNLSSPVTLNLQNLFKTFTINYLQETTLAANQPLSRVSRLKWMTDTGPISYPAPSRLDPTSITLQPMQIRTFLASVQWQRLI
Method: Assay of the compounds according to this invention is performed by measuring their α-D-mannosidase inhibitory activity. The activity of α-D-mannosidase is determined by colorimetrically measuring the amount of p-nitrophenol that has been liberated when p-nitrophenyl-α-D-mannopyranoside (Koch-Light Laboratories, England) as a substrate is hydrolyzed with α-D-mannosidase of the rat epididymis origin (a fraction obtained by precipitation with 20 - 80% ammonium sulfate at the Institute of Microbial Chemistry). Details of said procedure are as follows: p-Nitro-phenyl-α-D-mannopyranoside is dissolved in 50% methanol to make a 0.04M solution. To 0.05 ml of the 0.04M substrate solution are added 0.25 ml of a 0.1M acetate buffer (pH 4.5) and 0.15 ml of water or an aqueous solution containing the test compound. The mixture is heated at 37°C for 3 minutes, and 0.05 ml of -D-mannosidase is added. […] The reaction mixture is measured for the absorbance (A) at 400 nm. Separately, the control mixture comprising only water and being free from the aforesaid test compound solution is measured for the absorbance termed (b). The α-D-mannosidase inhibition rate (%) is calculated from the equation (b - a)/b x 100. […]

Compound	inhibition of α-D-mannosidase of the leguminous plant origin, in words [1]	inhibition of α-D-mannosidase of the animal origin (rat epididymides), in words [2]
O[C@H]1[C@H]2[C@H](O)CCCN2C[C@H]1O [Swainsonine]	inhibits	–
C[S+]([O-])C1C(N)C(O)C(O)C1O (stereo not drawn) [mannostatin S-oxide]	–	stronghly inhibit; also recorded: strongly inhibit
CSC1C(N)C(O)C(O)C1O (stereo not drawn) [mannostatin]	–	stronghly inhibit; also recorded: strongly inhibit
